Results on 3 molecules are retold here after patent publication US20040087633A1, “Methylidene oxazolidinone compound and preparation method thereof” (Korea Institute of Science and Technology, priority 2002, published 2004).

Common to all, as to experiment: Anti-microbial activity test in vitro (agar dilution MIC)
For orientation: Agar dilution tests growth on a series of plates holding different concentrations.

In one test the test system is S. epidermidis C2230. The test is classed as cell-based. The note with it: for MIC: Staphylococcus epidermidis, read-out: Minimum inhibition concentration (MIC). As to the method:
(§1) Anti-microbial activity test in vitro
(§2) Strains were cultivated for 18 hours at 37° C. in Agar Dilution method using Mueller Hinton Agar, and then plane plates inoculated with the strains by diluting them two times gradually were aligned in a row. Minimum inhibition concentration (MIC, μg/ml) for the representative compounds of the present invention, Linezolid (LZD) and vancomycin (VAN) were decided through visual observation, and the results are shown in the following tables 2 and 3.

A further test concerns E. faecalis ATCC29212. The test is classed as cell-based. To be noted: for MIC: Enterococcus faecalis, read-out: Minimum inhibition concentration (MIC). The procedure:
as §1, §2

In another test the test system is S. epidermidis C2235. The format is cell-based. To be noted: for MIC: Staphylococcus epidermidis, read-out: Minimum inhibition concentration (MIC). The procedure: as §1, §2
Another test deals with E. faecalis C6291. The test is classed as cell-based. To be noted: for MIC: Enterococcus faecalis, read-out: Minimum inhibition concentration (MIC). The procedure:
as §1, §2

The next test relates to S. epidermidis ATCC12228. The format is cell-based. To be noted: for MIC: Staphylococcus epidermidis, read-out: Minimum inhibition concentration (MIC). The procedure: as §1, §2
The subject of a further test is S. pyogenes C6012. The format is cell-based. To be noted: for MIC: Streptococcus pyogenes, read-out: Minimum inhibition concentration (MIC). As to the method: as §1, §2
The next test concerns S. pyogenes ATCC8668. The format is cell-based. The note with it: for MIC: Streptococcus pyogenes, read-out: Minimum inhibition concentration (MIC). As to the method: as §1, §2
A further test has as its system S. aureus ATCC 29213. The test is classed as cell-based. To be noted: Agar Dilution method, Mueller Hinton Agar, 18 hours at 37° C. As to the method:
as §1, §2

The next test has as its system E. faecalis C6288. The test is classed as cell-based. To be noted: for MIC: Enterococcus faecalis, read-out: Minimum inhibition concentration (MIC). As to the method: as §1, §2
Another test has as its system S. pyogenes C6003. The test is classed as cell-based. To be noted: for MIC: Streptococcus pyogenes, read-out: Minimum inhibition concentration (MIC). As to the method: as §1, §2
In a further test the test system is E. faecium C6301. The format is cell-based. The note with it: for MIC: Enterococcus faecium, read-out: Minimum inhibition concentration (MIC). As to the method:
as §1, §2

The next test deals with E. faecium C2252. The test is classed as cell-based. To be noted: for MIC: Enterococcus faecium, read-out: Minimum inhibition concentration (MIC). The procedure: as §1, §2
The test system of a further test is VRE C6487. The format is cell-based, Enterococcus faecium. The note with it: for MIC: Enterococcus, read-out: Minimum inhibition concentration (MIC). The procedure:
as §1, §2

A further test deals with VRE C6488. The test is classed as cell-based, Enterococcus faecium. To be noted: for MIC: Enterococcus, read-out: Minimum inhibition concentration (MIC). The procedure: as §1, §2
A further test concerns MRSA C6068. The format is cell-based, Staphylococcus aureus. To be noted: for MIC: Staphylococcus aureus, read-out: Minimum inhibition concentration (MIC). As to the method: as §1, §2
The next test has as its system MSSA C2214. The format is cell-based, Staphylococcus aureus. To be noted: for MIC: Staphylococcus aureus, read-out: Minimum inhibition concentration (MIC). The procedure:
as §1, §2

The next test deals with MRSA C2207. The format is cell-based, Staphylococcus aureus. To be noted: for MIC: Staphylococcus aureus, read-out: Minimum inhibition concentration (MIC). The procedure:
as §1, §2

The next test concerns CRSA C6043. The test is classed as cell-based, Staphylococcus aureus. To be noted: for MIC: Staphylococcus aureus, read-out: Minimum inhibition concentration (MIC). As to the method: as §1, §2
For a further test, the system named is MSSA C7142. The format is cell-based, Staphylococcus aureus. To be noted: for MIC: Staphylococcus aureus, read-out: Minimum inhibition concentration (MIC). The procedure: as §1, §2
A further test concerns MRSA C5100. The format is cell-based, Staphylococcus aureus. To be noted: for MIC: Staphylococcus aureus, read-out: Minimum inhibition concentration (MIC). As to the method:
as §1, §2

In another test the test system is CRSA C1062. The format is cell-based, Staphylococcus aureus. To be noted: for MIC: Staphylococcus aureus, read-out: Minimum inhibition concentration (MIC). The procedure: as §1, §2
The mark [1] stands for this setting: S. epidermidis C2230, Agar Dilution method, Mueller Hinton Agar, 18 hours at 37° C.
Where [2] appears, read: E. faecalis ATCC29212, Agar Dilution method, Mueller Hinton Agar, 18 hours at 37° C.
Where [3] appears, read: S. epidermidis C2235, Agar Dilution method, Mueller Hinton Agar, 18 hours at 37° C.
[4] abbreviates: E. faecalis C6291, Agar Dilution method, Mueller Hinton Agar, 18 hours at 37° C.
Setting [5] is: S. epidermidis ATCC12228, Agar Dilution method, Mueller Hinton Agar, 18 hours at 37° C.
Where [6] appears, read: S. pyogenes C6012, Agar Dilution method, Mueller Hinton Agar, 18 hours at 37° C.
Where [7] appears, read: S. pyogenes ATCC8668, Agar Dilution method, Mueller Hinton Agar, 18 hours at 37° C.
The mark [8] stands for this setting: E. faecalis C6288, Agar Dilution method, Mueller Hinton Agar, 18 hours at 37° C.
The mark [9] stands for this setting: S. pyogenes C6003, Agar Dilution method, Mueller Hinton Agar, 18 hours at 37° C.
The mark [10] stands for this setting: E. faecium C6301, Agar Dilution method, Mueller Hinton Agar, 18 hours at 37° C.
The mark [11] stands for this setting: E. faecium C2252, Agar Dilution method, Mueller Hinton Agar, 18 hours at 37° C.
[12] abbreviates: VRE C6487, Agar Dilution method, Mueller Hinton Agar, 18 hours at 37° C.
[13] abbreviates: VRE C6488, Agar Dilution method, Mueller Hinton Agar, 18 hours at 37° C.
Where [14] appears, read: MRSA C6068, Agar Dilution method, Mueller Hinton Agar, 18 hours at 37° C.
[15] abbreviates: MSSA C2214, Agar Dilution method, Mueller Hinton Agar, 18 hours at 37° C.
The mark [16] stands for this setting: MRSA C2207, Agar Dilution method, Mueller Hinton Agar, 18 hours at 37° C.
[17] abbreviates: CRSA C6043, Agar Dilution method, Mueller Hinton Agar, 18 hours at 37° C.
Setting [18] is: MSSA C7142, Agar Dilution method, Mueller Hinton Agar, 18 hours at 37° C.
Setting [19] is: MRSA C5100, Agar Dilution method, Mueller Hinton Agar, 18 hours at 37° C.
Where [20] appears, read: CRSA C1062, Agar Dilution method, Mueller Hinton Agar, 18 hours at 37° C.

Converted amounts (≈) assume the structure as drawn. Read-outs that look alike come from different tables or passages of the source.

On to `CC(=O)NC[C@H]1CN(c2ccc(N3CCC(=CC(C)O)CC3)c(F)c2)C(=O)O1` (stereo partly drawn) [Compound 22, N-[[(5S)-3-[3-fluoro-4-(4-(2-hydroxypropylidene)-piperidinyl)-phenyl]-2-oxo-5-oxazolidinyl]methyl]acetamide], for which the “Minimum inhibition concentration (MIC)” value with S. epidermidis C2230 (setting [1]) is 4 µg/mL (≈ 10.2 µM); with E. faecalis ATCC29212 (setting [2]) it was 8 µg/mL (≈ 20.4 µM); in the test with S. epidermidis C2235 (setting [3]), 4 µg/mL (≈ 10.2 µM); in the test with E. faecalis C6291 (setting [4]) it was 8 µg/mL (≈ 20.4 µM); in the test on S. epidermidis ATCC12228 (setting [5]), 2 µg/mL (≈ 5.11 µM); in the test on S. pyogenes C6012 (setting [6]) it was 2 µg/mL (≈ 5.11 µM). Moreover, the “Minimum inhibition concentration (MIC)” value in the test with S. pyogenes ATCC8668 (setting [7]) was 2 µg/mL (≈ 5.11 µM); with S. aureus ATCC 29213, 8 µg/mL (≈ 20.4 µM); in the test on E. faecalis C6288 (setting [8]), 4 µg/mL (≈ 10.2 µM); with S. pyogenes C6003 (setting [9]), 8 µg/mL (≈ 20.4 µM); with E. faecium C6301 (setting [10]), 4 µg/mL (≈ 10.2 µM); in the test on E. faecium C2252 (setting [11]), 4 µg/mL (≈ 10.2 µM). Moreover, the “Minimum inhibition concentration (MIC)” value with VRE C6487 (setting [12]) worked out at 4 µg/mL (≈ 10.2 µM); in the test with VRE C6488 (setting [13]), 4 µg/mL (≈ 10.2 µM); in the test with MRSA C6068 (setting [14]), 4 µg/mL (≈ 10.2 µM); with MSSA C2214 (setting [15]), 16 µg/mL (≈ 40.9 µM); with MRSA C2207 (setting [16]) it was 16 µg/mL (≈ 40.9 µM); in the test on CRSA C6043 (setting [17]), 8 µg/mL (≈ 20.4 µM). Besides, the “Minimum inhibition concentration (MIC)” value in the test with MSSA C7142 (setting [18]) amounted to 16 µg/mL (≈ 40.9 µM); in the test with MRSA C5100 (setting [19]), 8 µg/mL (≈ 20.4 µM); in the test with CRSA C1062 (setting [20]), 16 µg/mL (≈ 40.9 µM).

On to `CN[C@H](CC(C)C)C(=O)N[C@H]1C(=O)N[C@@H](CC(N)=O)C(=O)N[C@H]2C(=O)N[C@H]3C(=O)N[C@H](C(=O)N[C@H](C(=O)O)c4cc(O)cc(O)c4-c4cc3ccc4O)[C@H](O)c3ccc(c(Cl)c3)Oc3cc2cc(c3O[C@@H]2O[C@H](CO)[C@@H](O)[C@H](O)[C@H]2O[C@H]2C[C@](C)(N)[C@H](O)[C@H](C)O2)Oc2ccc(cc2Cl)[C@H]1O` [VAN, vancomycin, reference compound], for which the MIC in the test with S. epidermidis C2230 (C2230, 18 h) came out at 2 µg/mL (≈ 1.38 µM); in the test with E. faecalis ATCC29212 (ATCC29212, 18 h), 4 µg/mL (≈ 2.76 µM); in the test on S. epidermidis C2235 (C2235, 18 h) it was 2 µg/mL (≈ 1.38 µM); in the test on E. faecalis C6291 (C6291, 18 h) it was 2 µg/mL (≈ 1.38 µM); with S. epidermidis ATCC12228 (ATCC12228, 18 h), 1 µg/mL (≈ 0.69 µM); in the test on S. pyogenes C6012 (C6012, 18 h), 0.5 µg/mL (≈ 0.345 µM). Besides, the MIC with S. pyogenes ATCC8668 (ATCC8668, 18 h) is 0.12 µg/mL (≈ 0.0828 µM); in the test on E. faecalis C6288 (C6288, 18 h) it was 2 µg/mL (≈ 1.38 µM); in the test on S. pyogenes C6003 (C6003, 18 h) it was 4 µg/mL (≈ 2.76 µM); in the test with E. faecium C6301 (C6301, 18 h), 1 µg/mL (≈ 0.69 µM); in the test on E. faecium C2252 (C2252, 18 h), 1 µg/mL (≈ 0.69 µM); with VRE C6487 (VRE, 18 h) it was greater than 32 µg/mL. In addition, the MIC is greater than 32 µg/mL with VRE C6488 (VRE, 18 h); 1 µg/mL (≈ 0.69 µM) in the test on MRSA C6068 (MRSA, 18 h); 1 µg/mL (≈ 0.69 µM) in the test with MSSA C2214 (MSSA, 18 h); 1 µg/mL (≈ 0.69 µM) in the test on MRSA C2207 (MRSA, 18 h); 2 µg/mL (≈ 1.38 µM) in the test with CRSA C6043 (18 h); 2 µg/mL (≈ 1.38 µM) with MSSA C7142 (MSSA, 18 h). For the same molecule, the MIC with MRSA C5100 (MRSA, 18 h) worked out at 2 µg/mL (≈ 1.38 µM); with CRSA C1062 (18 h), 2 µg/mL (≈ 1.38 µM).

Consider `CC(=O)NC[C@H]1CN(c2ccc(N3CCOCC3)c(F)c2)C(=O)O1` [LZD, Linezolid, reference compound], for which the MIC was determined as 2 µg/mL (≈ 5.93 µM) in the test on S. epidermidis C2230 (setting [1]); 4 µg/mL (≈ 11.9 µM) in the test on E. faecalis ATCC29212 (setting [2]); 2 µg/mL (≈ 5.93 µM) in the test on S. epidermidis C2235 (setting [3]); 2 µg/mL (≈ 5.93 µM) with E. faecalis C6291 (setting [4]); 0.5 µg/mL (≈ 1.48 µM) with S. epidermidis ATCC12228 (setting [5]); 0.5 µg/mL (≈ 1.48 µM) in the test on S. pyogenes C6012 (setting [6]). Also, the MIC with S. pyogenes ATCC8668 (setting [7]) is 0.5 µg/mL (≈ 1.48 µM); in the test on E. faecalis C6288 (setting [8]), 2 µg/mL (≈ 5.93 µM); in the test on S. pyogenes C6003 (setting [9]), 2 µg/mL (≈ 5.93 µM); in the test with E. faecium C6301 (setting [10]) it was 2 µg/mL (≈ 5.93 µM); in the test with E. faecium C2252 (setting [11]) it was 2 µg/mL (≈ 5.93 µM); in the test with VRE C6487 (setting [12]), 2 µg/mL (≈ 5.93 µM). For the same molecule, the MIC came to 2 µg/mL (≈ 5.93 µM) in the test on VRE C6488 (setting [13]); 2 µg/mL (≈ 5.93 µM) with MRSA C6068 (setting [14]); 4 µg/mL (≈ 11.9 µM) in the test with MSSA C2214 (setting [15]); 4 µg/mL (≈ 11.9 µM) with MRSA C2207 (setting [16]); 2 µg/mL (≈ 5.93 µM) in the test on CRSA C6043 (setting [17]); 4 µg/mL (≈ 11.9 µM) in the test with MSSA C7142 (setting [18]). Also, the MIC in the test with MRSA C5100 (setting [19]) amounted to 2 µg/mL (≈ 5.93 µM); in the test with CRSA C1062 (setting [20]) it was 4 µg/mL (≈ 11.9 µM).
